Data from US12152048B2, “Nitroxoline prodrug and use thereof” (Jiangsu Yahong Meditech Co., Ltd., priority 2018, dated 2024).
In brackets after ≈: the same amount, converted by molar mass.

Columns and labels:
[1] = Determination of water solubility in phosphate buffer; assay type: physicochemical; settings: for solubility at 24 h: aqueous buffer, thermodynamic from solid, phosphate buffer pH 7.4, room temperature
Procedure, shortened: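 Thermodynamic solubility: compound concentration measured by LC/MS/MS in the vacuum filtrate after 24 h shaking at room temperature of 2 mg powder in 500 μL phosphate buffer at pH 1.2, 4.5, 6.8 or 7.4.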

[2] = Stability in mouse liver microsome; assay type: in vitro ADME; settings: 2 μM, 37° C., 30 minutes
[3] = Stability in liver microsome, overall conclusion (species not stated); assay type: in vitro ADME; settings: conclusion in words
[4] = Stability in human plasma
Excerpt: (§1) Experimental instruments: thermostatic shaker (SHA-B, Guohua Electric Appliance Co., Ltd.); centrifuge (5810R, Eppendorf); mass spectrometry (AP4000, Applied Biosystems, USA); liquid chromatography (LC-30AD, Shimadzu); sample injector (CTC Analytics AG System, CTC).
(§2) Test animals: plasma of human (batch number: BRH1343165), rat (batch number: RAT336728), mouse (batch number: MSE280000), dog (batch number: BGL99137) and monkey (batch number: PH-Monkey-20180821) are purchased from Shanghai Sixin Biological Technology Co., Ltd.
(§3) Experimental process: the compound of the present invention was dissolved in an organic solvent to obtain a 1 mM working solution. 3 μL of the working solution were added to 597 μL of pre-incubated human or rat plasma and mixed well. 50 μL of the solution were immediately taken out as the 0 minute sample. The remaining sample was incubated at 37° C., and 50 μL of sample were taken out at 15, 30, 60 and 120 minutes respectively. All the samples taken out were immediately processed to precipitate protein, and centrifuged to obtain a supermate for the determination of the compound concentration by LC/MS/MS.

[5] = Stability in dog liver microsome; settings: 2 μM, 37° C., 30 minutes
[6] = Stability in rat liver microsome; settings: 2 μM, 37° C., 30 minutes
[7] = Stability in human liver microsome; settings: 2 μM, 37° C., 30 minutes
Protocol: Experimental instruments: thermostatic shaker (SHA-B, Guohua Electric Appliance Co., Ltd.); centrifuge (5810R, Eppendorf); mass spectrometry (API4000, Applied Biosystems, USA); liquid chromatography (LC-30AD, Shimadzu); sample injector (CTC Analytics AG System, CTC).
Experimental process: 25 μg/mL alamethicin (Aldrich), 5 mM magnesium chloride and 0.5 mg/mL microsome (XENOTECH) were added to 100 mM phosphate buffer to obtain a coenzyme-free reaction solution. A portion of the coenzyme-free reaction solution was added with 1 mM reductive nicotinamide adenine dinucleotide phosphate (Aldrich) and 5 mM uridine diphosphate glucuronic acid (Aldrich) to obtain a coenzyme-containing reaction solution. The working solution of the compound of the present invention was added to the two reaction solutions so that the final concentration of the compound was 2 μM. Immediately after mixing well, 50 μL of the solution were taken out as the 0 minute sample, and 50 μL of the remaining sample were taken out after incubating at 37° C. for 30 minutes. All the samples taken out were immediately processed to precipitate protein, and centrifuged to obtain a supernate for the determination of the compound concentration by LC/MS/MS.

[8] = Stability in plasma, overall conclusion (species not stated); settings: conclusion in words
Stability in dog plasma = assay type: in vitro ADME
Excerpt: as §1, §2, §3

[9] = Stability in mouse plasma; assay type: in vitro ADME
Excerpt: as §1, §2, §3

[10] = Stability in monkey plasma; assay type: in vitro ADME
Excerpt: as §1, §2, §3

[11] = Pharmacokinetics assay in dog (nitroxoline concentration in plasma after single intravenous or oral administration); assay type: in vivo, beagle dog; settings: nitroxoline in beagle dog plasma
Excerpt: Nitroxoline is mainly metabolized by the phase II metabolism in liver with a fast metabolism rate, so it has a short half-life in the body. The present invention modified its structure and 13 compounds of formula (I) were obtained through chemical synthesis. The change of nitroxoline concentration in dog plasma after a single intravenous or oral administration of nitroxoline and the compound of formula (I) was studied to evaluate the pharmacokinetic behavior of nitroxoline and the compound of formula (I) in dog body.
Male beagle dog (Beijing Marshall Biotechnology Co., Ltd., Certificate No.: SCXK (BJ) 2016-0001, Qualified number: 11400600001728), 3 dogs per group, weight 10 to 13 kg, 20 to 22 months old. The dogs were fasted overnight before the administration with free access to water, and fed 4 hours after the administration. The test compound was added to an EP tube, and then added with DMSO, solutol and sterilized water for injection (the volume ratio of the three was 1:2:17, v:v:v). The EP tube was subjected to ultrasound for 20 minutes to make the test compound dissolve well (compound concentration: 0.005 mmol/mL). The dose for intravenous administration was 0.01 mmol/kg, and the dose for oral administration was 0.1 mmol/kg. 0.3 ml of whole blood was collected from jugular vein before the administration (0 hour) and 0.0833, 0.25, 0.5, 1, 2, 4, 6, 8, 10 and 12 hours after the administration (sampling points can be adjusted according to the specific situation) respectively. The blood sample was placed in a centrifuge tube containing EDTA-K2 anticoagulant (Aldrich), and the centrifuge tube was left to stand in ice. The blood sample was centrifuged for 10 minutes at 1530 g within 0.5 hour to obtain all clean plasma. The plasma was placed in another clean centrifuge tube, and stored in a refrigerator at −20° C. for later use.
Solution for standard curve was formulated. 1000 μL of internal standard working solution (containing a solution of verapamil (5 ng/mL, Aldrich), glibenclamide (50 ng/mL, Aldrich) and diclofenac (50 ng/mL, Aldrich) in acetonitrile) was added to 10 μL of the solution for standard curve and sample, and the mixture was shaked by vortex for 5 minutes. The mixture was centrifuged for 10 minutes at 4° C., 3700 rpm. 60 μL of the supernatant were placed in an injection tube, and mixed with 120 μL of water. 10 μL of the solution were injected into the liquid chromatography-mass spectrometry system for determination. The pharmacokinetic parameters were calculated by the WinNonlin V 6.2 non-compartmental model.

Excerpt for Stability in rat plasma: as §1, §2, §3

Row | SMILES | solubility at 24 h [1] | Percentage of the compound remaining in mouse liver microsome ([2]; with coenzyme) | Percentage of the compound remaining in mouse liver microsome ([2]; without coenzyme) | stability in microsome [3] | Percentage of the compound remaining in plasma (Stability in rat plasma; 0 minute) | Percentage of the compound remaining in plasma (Stability in rat plasma; 37° C., 15 minutes) | Percentage of the compound remaining in plasma (Stability in rat plasma; 37° C., 30 minutes) | Percentage of the compound remaining in plasma (Stability in rat plasma; 37° C., 60 minutes) | Percentage of the compound remaining in plasma (Stability in rat plasma; 37° C., 120 minutes) | Percentage of the compound remaining in plasma ([4]; 0 minute) | Percentage of the compound remaining in plasma ([4]; 37° C., 15 minutes) | Percentage of the compound remaining in plasma ([4]; 37° C., 30 minutes) | Percentage of the compound remaining in plasma ([4]; 37° C., 60 minutes) | Percentage of the compound remaining in plasma ([4]; 37° C., 120 minutes) | Percentage of the compound remaining in dog liver microsome ([5]; with coenzyme) | Percentage of the compound remaining in dog liver microsome ([5]; without coenzyme) | Percentage of the compound remaining in rat liver microsome ([6]; with coenzyme) | Percentage of the compound remaining in rat liver microsome ([6]; without coenzyme) | Percentage of the compound remaining in human liver microsome ([7]; with coenzyme) | Percentage of the compound remaining in human liver microsome ([7]; without coenzyme) | other results
1 | CN(CC(O)CO)C(=O)OCOc1ccc([N+](=O)[O-])c2cccnc12 (stereo not drawn) [Compound 52, (5-nitroquinolin-8-yloxy)methyl 2,3-dihydroxypropyl(methyl)carbamate] | 687 µg/mL (≈ 1960 µM) | 95.16% | 105.69% | high stability | 100.0% | 102.5% | 90.1% | 84.6% | 71.3% | 100.0% | 95.6% | 94.1% | 89.2% | 83.3% | 85.67% | 91.82% | 101.34% | 99.39% | 102.24% | 108.46% | water solubility compared with nitroxoline ([1]; conclusion in words): increased by several times; stability in plasma [8]: high stability
2 | COC(=O)CNC(=O)OCOc1ccc([N+](=O)[O-])c2cccnc12 [Compound 53, methyl 2-(((5-nitroquinolin-8-yloxy)methoxy)formamido)acetate] | 45.5 µg/mL (≈ 136 µM) | 32.13% | 55.80% | high stability |  |  |  |  |  |  |  |  |  |  | 70.38% | 82.59% | 54.58% | 54.77% | 79.98% | 84.61% | Percentage of the compound remaining in plasma (Stability in dog plasma; 0 minute): 100.0%; Percentage of the compound remaining in plasma (Stability in dog plasma; 37° C., 15 minutes): 96.3%; Percentage of the compound remaining in plasma (Stability in dog plasma; 37° C., 30 minutes): 92.3%; Percentage of the compound remaining in plasma (Stability in dog plasma; 37° C., 60 minutes): 78.6%; Percentage of the compound remaining in plasma (Stability in dog plasma; 37° C., 120 minutes): 67.3%; stability in plasma [8]: high stability
3 | O=[N+]([O-])c1ccc(O)c2ncccc12 [Nitroxoline] | 352 µg/mL (≈ 1850 µM) |  |  |  | 100.0% | 93.9% | 94.1% | 95.3% | 88.4% | 100.0% | 99.3% | 98.3% | 100.6% | 91.6% |  |  |  |  |  |  | Percentage of the compound remaining in plasma ([9]; 0 minute): 100.0%; Percentage of the compound remaining in plasma ([9]; 37° C., 15 minutes): 95.8%; Percentage of the compound remaining in plasma ([9]; 37° C., 30 minutes): 97.4%; Percentage of the compound remaining in plasma ([9]; 37° C., 60 minutes): 97.4%; Percentage of the compound remaining in plasma ([9]; 37° C., 120 minutes): 93.0%; Percentage of the compound remaining in plasma (Stability in dog plasma; 0 minute): 100.0%; Percentage of the compound remaining in plasma (Stability in dog plasma; 37° C., 15 minutes): 100.8%; Percentage of the compound remaining in plasma (Stability in dog plasma; 37° C., 30 minutes): 101.1%; Percentage of the compound remaining in plasma (Stability in dog plasma; 37° C., 60 minutes): 95.3%; Percentage of the compound remaining in plasma (Stability in dog plasma; 37° C., 120 minutes): 98.4%; Percentage of the compound remaining in plasma ([10]; 0 minute): 100.0%; Percentage of the compound remaining in plasma ([10]; 37° C., 15 minutes): 101.2%; Percentage of the compound remaining in plasma ([10]; 37° C., 30 minutes): 104.0%; Percentage of the compound remaining in plasma ([10]; 37° C., 60 minutes): 101.8%; Percentage of the compound remaining in plasma ([10]; 37° C., 120 minutes): 100.4%; AUC0-inf ([11]; intravenous administration 0.01 mmol/kg): 3300 ng*hmL^−1; AUC0-inf ([11]; oral administration 0.1 mmol/kg): 4780 ng*hmL^−1
